Assay [1] deals with T1, DNA polymerase III PolC-type (Bacillus subtilis (strain 168), UniProt P13267). Put plainly: Inhibition against Bacillus subtilis DNA polymerase III (wild type).
Target sequence in this assay (P13267 whole entry): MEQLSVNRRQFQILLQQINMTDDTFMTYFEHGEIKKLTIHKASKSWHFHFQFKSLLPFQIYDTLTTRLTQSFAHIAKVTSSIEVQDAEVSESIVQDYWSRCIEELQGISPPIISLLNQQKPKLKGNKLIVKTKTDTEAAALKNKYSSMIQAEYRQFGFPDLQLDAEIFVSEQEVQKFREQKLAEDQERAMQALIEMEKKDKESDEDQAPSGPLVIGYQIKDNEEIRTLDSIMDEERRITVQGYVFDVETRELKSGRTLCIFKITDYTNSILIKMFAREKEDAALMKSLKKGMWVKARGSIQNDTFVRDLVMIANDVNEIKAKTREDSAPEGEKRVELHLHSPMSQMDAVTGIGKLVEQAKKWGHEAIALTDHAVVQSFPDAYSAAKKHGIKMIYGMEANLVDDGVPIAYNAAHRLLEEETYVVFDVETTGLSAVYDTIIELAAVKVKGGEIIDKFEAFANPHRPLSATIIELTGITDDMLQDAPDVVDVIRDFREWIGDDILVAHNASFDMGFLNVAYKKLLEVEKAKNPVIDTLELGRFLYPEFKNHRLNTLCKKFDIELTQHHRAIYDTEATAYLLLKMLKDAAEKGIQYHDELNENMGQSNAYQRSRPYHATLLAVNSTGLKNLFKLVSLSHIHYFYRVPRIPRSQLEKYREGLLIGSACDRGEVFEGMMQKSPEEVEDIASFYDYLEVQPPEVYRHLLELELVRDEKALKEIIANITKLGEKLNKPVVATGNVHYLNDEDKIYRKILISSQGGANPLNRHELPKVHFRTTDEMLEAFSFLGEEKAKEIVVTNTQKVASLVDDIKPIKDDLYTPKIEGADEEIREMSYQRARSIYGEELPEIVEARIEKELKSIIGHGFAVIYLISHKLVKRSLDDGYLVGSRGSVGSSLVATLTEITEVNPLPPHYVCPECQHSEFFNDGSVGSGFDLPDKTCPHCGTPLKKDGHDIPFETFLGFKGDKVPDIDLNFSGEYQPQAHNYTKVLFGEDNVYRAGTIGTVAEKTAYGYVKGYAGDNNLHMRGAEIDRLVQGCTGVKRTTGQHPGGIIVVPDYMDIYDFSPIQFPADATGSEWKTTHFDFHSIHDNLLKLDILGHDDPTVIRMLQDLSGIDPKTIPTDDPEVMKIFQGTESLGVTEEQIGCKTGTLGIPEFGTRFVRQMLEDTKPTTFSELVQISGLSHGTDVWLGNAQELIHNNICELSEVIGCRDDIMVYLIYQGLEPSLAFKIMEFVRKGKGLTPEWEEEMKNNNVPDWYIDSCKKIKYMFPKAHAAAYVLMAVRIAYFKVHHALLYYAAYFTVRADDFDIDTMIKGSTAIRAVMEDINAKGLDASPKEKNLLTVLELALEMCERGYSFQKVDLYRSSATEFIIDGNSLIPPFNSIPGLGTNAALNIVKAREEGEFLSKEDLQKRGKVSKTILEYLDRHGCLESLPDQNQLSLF
Assay [2] addresses T1, DNA polymerase III PolC-type. Put plainly: Inhibition of Bacillus subtilis DNA polymerase III (wild type); NA = inactive (<10% inhibition at 1000 uM).
Target sequence in this assay (P13267 whole entry): as above
The target in assay [3] is DNA polymerase III PolC-type (Bacillus subtilis (strain 168)) (UniProt P13267). Put plainly: Degree of resistance is the ratio between inhibition of Bacillus subtilis DNA Polymerase III azp-12 and WT.
DNA polymerase III PolC-type (Bacillus subtilis (strain 168)), sequence (P13267 whole entry): as above
For assay [4], the target named is T1, DNA polymerase III PolC-type. Put plainly: Inhibition of Bacillus subtilis DNA polymerase III (wild type).
Target sequence in this assay (P13267 whole entry): as above
For assay [5] the target is unchanged. Put plainly: Inhibition against Bacillus subtilis DNA Polymerase III/azp-12(mutant).
Target sequence in this assay (P13267 whole entry, looked up): as the sequence (P13267 whole entry) above
Assay [6] shares this target. Put plainly: In vitro inhibition of Bacillus subtilis DNA Polymerase III/azp-12(mutant).
Target sequence in this assay (P13267 whole entry, looked up): as the sequence (P13267 whole entry) above
Assay [7] has the same target. Briefly: Inhibition of Bacillus subtilis […](wild type); NA = inactive (<10% inhibition at 1000 uM).
Target sequence in this assay (P13267 whole entry): as above
Assay [8] shares this target. Briefly: Inhibition against Bacillus subtilis DNA Polymerase III/azp-12(mutant);NA = inactive (<10% inhibition at 1000 uM).
Target sequence in this assay (P13267 whole entry, looked up): as the sequence (P13267 whole entry) above

Molecules are shown by their SMILES.

Regarding `Cc1ccc(Nc2cc(O)nc(O)n2)c(C)c1`, in assay [1], the Ki (usually the equilibrium dissociation constant of an inhibitor or competing ligand from its target) stood at 1990 µM.

With `CCCNc1cc(O)nc(O)n1`, the Ki result in assay [2] is given as “Not Active”.

Molecule `Cc1ccc(Nc2cc(=O)[nH]c(=O)[nH]2)cc1I` yielded an inhibition constant (Ki) in assay [1] of 0.38 µM.

As to `Cc1ccc(Nc2cc(O)nc(O)n2)cc1`, the Degree of resistance in assay [3] came out at 3.9.

`CCCCNc1cc(O)nc(O)n1` registered a Ki in assay [4] of 5370 µM.

For the molecule `CCc1ccc(Nc2cc(O)nc(O)n2)cc1`, the Degree of resistance in assay [3] came to 0.3.

Consider `Cc1ccc(Nc2cc(O)nc(O)n2)cc1Cl`, for which, in assay [1], the affinity, expressed as Ki, was 0.63 µM.

Consider `OCc1ccc(Nc2cc(O)nc(O)n2)cc1`, for which the Degree of resistance in assay [3] was determined as 0.6.

Consider `CCCCCNc1cc(=O)[nH]c(=O)[nH]1`, for which, in assay [4], affinity was put at a Ki of 335 µM.

Consider `CC(C)c1ccc(Nc2cc(O)nc(O)n2)cc1`, for which the Degree of resistance in assay [3] came to 0.065.

For `Cc1cc(Nc2cc(=O)[nH]c(=O)[nH]2)ccc1N`, the results for the Ki in assay [1] and in assay [5] were 19 µM and 158 µM, respectively.

Turning to `Cc1ccc(Nc2cc(O)nc(O)n2)cc1C`, the values for the Ki in assay [6] and in assay [1] were 3.5 µM and 0.92 µM, respectively. In assay [3], the Degree of resistance was 3.9.

Take `Oc1cc(Nc2ccc(Br)cc2)nc(O)n1`: the Degree of resistance in assay [3] was 0.13.

In the case of `O=c1cc(Nc2cccc(CO)c2)[nH]c(=O)[nH]1`, the values for the inhibitory constant (Ki) in assay [6] and in assay [1] were 5130 µM and 413 µM, respectively.

As to `Oc1cc(Nc2cccc(Br)c2)nc(O)n1`, the Ki in assay [6] is 21.9 µM; in assay [1], 10.3 µM. The Degree of resistance in assay [3] was determined as 2.1.

As for `Cc1cc(Nc2cc(O)nc(O)n2)ccc1Br`, the Degree of resistance in assay [3] is 0.85.

In the case of `O=c1cc(Nc2cccc(CCl)c2)[nH]c(=O)[nH]1`, affinity in assay [1] was put at a Ki of 7.6 µM.

Consider `CC(=O)Nc1ccc(Nc2cc(=O)[nH]c(=O)[nH]2)cc1C`, for which affinity in assay [1] was put at a Ki of 464 µM.

With `Cc1ccc(Nc2cc(=O)[nH]c(=O)[nH]2)cc1N`, the Ki is 122 µM in assay [1] and 298 µM in assay [5].

`Oc1cc(Nc2ccc3c(c2)CCC3)nc(O)n1` gave a Ki in assay [1] of 0.42 µM.

Take `O=c1cc(NCCCCCO)[nH]c(=O)[nH]1`: the affinity in assay [1] corresponds to a Ki of 13500 µM.

As for `Cc1ccccc1Nc1cc(O)nc(O)n1`, the Ki entry in assay [2] is recorded as “Not Active”.

With `Nc1ccc(Nc2cc(=O)[nH]c(=O)[nH]2)cc1`, the results for the inhibition constant Ki in assay [1] and in assay [5] were 640 µM and 3900 µM, respectively.

As to `Cc1cccc(Nc2cc(=O)[nH]c(=O)[nH]2)c1C`, in assay [1], the affinity corresponds to a Ki of 223 µM.

For `Cc1cccc(Nc2cc(O)nc(O)n2)c1`, the Degree of resistance in assay [3] was 4.2.

In turn, `CCCCCCNc1cc(=O)[nH]c(=O)[nH]1` came in with a Ki in assay [1] of 370 µM.

Molecule `Cc1ccc(Nc2cc(O)nc(O)n2)cc1CCl` showed an inhibition constant (Ki) in assay [1] of 0.26 µM.

As for `Oc1ccc(Nc2cc(O)nc(O)n2)cc1`, the Degree of resistance in assay [3] turned out to be 2.2.

As to `Cc1ccc(Nc2cc(=O)[nH]c(=O)[nH]2)cc1CO`, the Ki in assay [1] was 78.5 µM.

On to `CCc1cccc(Nc2cc(O)nc(O)n2)c1`, for which the Degree of resistance in assay [3] was 6.4.

The molecule `C=CCNc1cc(O)nc(O)n1` came in with a Ki in assay [4] of 22400 µM.

Consider `CCNc1cc(O)nc(O)n1`, for which the inhibition constant Ki entry in assay [7] is “Not Active”.

Consider `Oc1cc(Nc2cccc(I)c2)nc(O)n1`, for which the Degree of resistance in assay [3] was 4.3.

For `Cc1cc(C)cc(Nc2cc(=O)[nH]c(=O)[nH]2)c1`, the Ki in assay [1] was 124 µM.

Molecule `O=c1cc(Nc2ccc(C(F)(F)F)cc2)[nH]c(=O)[nH]1` came in with a Ki in assay [1] of 101 µM.

`CCCc1ccc(Nc2cc(O)nc(O)n2)cc1`: the Degree of resistance in assay [3] stood at 0.12.

`CC(C)CCNc1cc(=O)[nH]c(=O)[nH]1` returned an inhibitory constant (Ki) in assay [1] of 2400 µM.

For `COc1ccc(Nc2cc(O)nc(O)n2)cc1`, the Ki in assay [6] and in assay [1] was 120 µM throughout. In assay [3], the Degree of resistance was found to be 1.

The molecule `Oc1cc(Nc2ccc(Cl)c(Cl)c2)nc(O)n1` registered a Ki in assay [1] of 0.93 µM.

As for `CCCCCCCCCCNc1cc(O)nc(O)n1`, in assay [7], the Ki result was “Not Active”.

Consider `O=c1cc(Nc2ccc(Cl)cc2)[nH]c(=O)[nH]1`, for which the Degree of resistance in assay [3] was 0.56.

The molecule `O=c1cc(Nc2cccc3ccccc23)[nH]c(=O)[nH]1` gave a Ki in assay [1] of 82.6 µM.

`Cc1cccc(Nc2cc(=O)[nH]c(=O)[nH]2)c1`: the values for the inhibition constant (Ki) in assay [6] and in assay [1] were 178 µM and 42.8 µM, respectively.

In assay [1], `CC(=O)Nc1cc(Nc2cc(O)nc(O)n2)ccc1C` showed a Ki of 460 µM.

In the case of `CCCc1ccc(Nc2cc(=O)[nH]c(=O)[nH]2)cc1`, the Ki is 54 µM in assay [6] and 452 µM in assay [1].

Consider `O=c1cc(Nc2ccc3ccccc3c2)[nH]c(=O)[nH]1`, for which, in assay [1], the affinity, expressed as Ki, was 6.8 µM.

With `CCc1ccccc1Nc1cc(O)nc(O)n1`, the Ki result in assay [7] is “Not Active”.

As for `CCCCc1ccc(Nc2cc(O)nc(O)n2)cc1`, in assay [3], the Degree of resistance stood at 0.4.

As for `Cc1ccc(C)c(Nc2cc(O)nc(O)n2)c1`, the Ki in assay [1] was 1360 µM.

On to `OCc1cccc(Nc2cc(O)nc(O)n2)c1`, for which, in assay [3], the Degree of resistance came out at 12.4.

Take `Oc1cccc(Nc2cc(O)nc(O)n2)c1`: the Ki entry in assay [8] is “Not Active”; in assay [1], 2630 µM.

In the case of `Cc1cc(C)c(Nc2cc(O)nc(O)n2)c(C)c1`, in assay [7], the Ki result is on record as “Not Active”.

As to `Oc1cc(Nc2cccc(Cl)c2)nc(O)n1`, the Ki amounted to 41.7 µM in assay [6] and 25 µM in assay [1]. In assay [3], the Degree of resistance was 1.7.

Source of the values: ChEMBL document CHEMBL1121521, “Inhibitors of Bacillus subtilis DNA polymerase III. 6-Anilinouracils and 6-(alkylamino)uracils” (J Med Chem, 1980).
